In ChEMBL document CHEMBL1201862, “PubChem BioAssay data set” (2004):
Calls of active or inactive are those of the source. No stated cut-off is given here; in the data, actives have a measured IC50 and inactives only a lower limit.

Target: Envelope glycoprotein gp160 (Human immunodeficiency virus 1, UniProt Q6QLK5)
Assay: inhibitors of HIV fusion peptide binding, primary screen, biochemical, uHTS, fluorescence dequenching (AID 1986)

Sequence of Envelope glycoprotein gp160 (Q6QLK5 whole entry, the tested form may be a part): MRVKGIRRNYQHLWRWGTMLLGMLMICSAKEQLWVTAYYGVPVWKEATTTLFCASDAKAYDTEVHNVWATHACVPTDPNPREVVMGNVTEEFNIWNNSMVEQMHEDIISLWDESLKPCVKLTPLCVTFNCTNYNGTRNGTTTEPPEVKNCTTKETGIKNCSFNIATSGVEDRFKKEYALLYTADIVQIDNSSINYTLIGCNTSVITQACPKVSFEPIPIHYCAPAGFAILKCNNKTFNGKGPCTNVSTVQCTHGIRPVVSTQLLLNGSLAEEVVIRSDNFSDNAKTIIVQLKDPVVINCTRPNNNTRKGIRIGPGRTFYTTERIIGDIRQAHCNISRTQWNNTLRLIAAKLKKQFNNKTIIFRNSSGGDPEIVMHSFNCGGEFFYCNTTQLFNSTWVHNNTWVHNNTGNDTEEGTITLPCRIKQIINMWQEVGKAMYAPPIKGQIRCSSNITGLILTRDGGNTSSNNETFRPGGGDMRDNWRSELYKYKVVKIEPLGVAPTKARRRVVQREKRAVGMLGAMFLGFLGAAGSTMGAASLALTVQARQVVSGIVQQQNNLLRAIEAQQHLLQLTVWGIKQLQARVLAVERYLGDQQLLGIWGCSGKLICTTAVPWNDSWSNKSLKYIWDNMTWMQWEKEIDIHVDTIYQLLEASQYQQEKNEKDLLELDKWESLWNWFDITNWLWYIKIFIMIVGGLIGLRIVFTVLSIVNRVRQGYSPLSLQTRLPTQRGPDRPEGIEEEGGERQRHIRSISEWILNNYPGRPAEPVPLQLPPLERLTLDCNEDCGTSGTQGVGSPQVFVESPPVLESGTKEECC

O=C(NN1C(=O)/C(=C/c2ccc(O)c([N+](=O)[O-])c2)SC1=S)c1ccccc1Cl
IC50: 28.2 µM (active)

CC(C)(C)CC(C)(C)c1ccc(OCC(=O)N/N=C/c2ccc(S(=O)(=O)O)o2)cc1
IC50: 27.8 µM (active)
